This test concerns the target Serine/threonine-protein kinase PAK 4 (Homo sapiens, UniProt O96013). In words: Enzymatic Assay: The enzymatic activity of PAK4 KD was measured by its ability to catalyzed the transfer of a phosphate residue from a nucleoside triphosphate to an amino acid side chain of a commercially available peptide (amino acid sequence EVPRRKSLVGTPYWM).

Serine/threonine-protein kinase PAK 4, sequence (O96013 whole entry): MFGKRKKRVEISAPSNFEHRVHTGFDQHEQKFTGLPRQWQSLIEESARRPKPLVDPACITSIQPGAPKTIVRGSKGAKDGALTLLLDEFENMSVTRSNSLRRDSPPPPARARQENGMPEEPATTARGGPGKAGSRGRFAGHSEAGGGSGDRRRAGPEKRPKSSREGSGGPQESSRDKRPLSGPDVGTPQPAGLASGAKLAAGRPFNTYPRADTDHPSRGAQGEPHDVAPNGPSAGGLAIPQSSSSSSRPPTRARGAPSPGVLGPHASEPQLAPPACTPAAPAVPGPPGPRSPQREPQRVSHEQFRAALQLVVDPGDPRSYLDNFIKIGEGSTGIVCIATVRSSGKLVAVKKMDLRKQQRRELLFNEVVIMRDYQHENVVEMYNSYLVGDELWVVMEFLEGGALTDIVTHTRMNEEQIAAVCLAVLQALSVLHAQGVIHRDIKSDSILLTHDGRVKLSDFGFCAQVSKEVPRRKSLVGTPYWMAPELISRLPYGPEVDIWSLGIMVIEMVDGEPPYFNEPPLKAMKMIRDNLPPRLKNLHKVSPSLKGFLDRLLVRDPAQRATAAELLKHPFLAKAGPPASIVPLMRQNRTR

The term EC50 denotes the midpoint of the concentration-response curve. Higher therefore signals lower potency in that assay. With `CC1(C)c2n[nH]c(Nc3nc(Cl)nc(N4CCC[C@H]4C(N)=O)n3)c2CN1C(=O)NC1C[C@@H]1c1ccccc1` (stereo partly specified), the EC50 was > 4 µM.

These data come from ChEMBL document CHEMBL3639362, “Pyrrolopyrazoles, potent kinase inhibitors” (2013).
